These compounds were tested against T1, Human NMDA (NR1/NR2B) Receptor (Homo sapiens, UniProt Q13224) (assay: NR2B Ca2+ influx assay). Settings: 10 μM compound; HEK293 cells expressing GRIN1 and GRIN2B; glutamic acid/glycine-induced Ca2+ influx, Fluo-4 fluorescence; read-out: inhibitory rate (10 μM compound concentration).
T1 construct: host or cells: HEK293
Type: cell-based
Source text: Experimental Example 1 NR2B Ca^2+ Influx Assay
To confirm the “antagonistic action on an NMDA receptor containing the NR2B subunit” of the compound of the present invention, human embryonic kidney cell expressing the “NMDA receptor composed of four subunits including 2 sets of heterodimers of NR1 and NR2B”, specifically HEK293 cell expressing human glutamate ionotropic receptor NMDA type subunit 1 (GRIN1) and human glutamate ionotropic receptor NMDA type subunit 2B (GRIN2B), was used and the activation suppressive effect (inhibitory activity) on the receptors by the compound of the present invention was measured.
HEK293 cells that express GRIN1 and GRIN2B were purchased from ChanTest (Human NMDA (NR1/NR2B) Receptor-expressing, stable replicating cell line (HEK293) catalog No. CT6121).
As an index of the NMDA receptor activation, intracellular calcium ion (Ca^2+) influx caused by the binding of glycine and glutamic acid with NR1 and NR2B, respectively, was used.
HEK293 cells that express GRIN1 and GRIN2B were cultured in a cell culture flask in DMEM/F-12 (COSMO BIO, 10-092-CM) medium added with 10% FBS (fetal bovine serum, AusGene), 100 units/mL penicillin, 100 μg/mL streptomycin, 500 μg/mL neomycin, 100 μg/mL Zeocin (registered trade mark, Invitrogen), 5 μg/mL Blasticidin, in an incubator (37° C., 5% CO2).
The cells were detached from flask with trypsin the day before the assay, suspended in a seeding medium (DMEM (Invitrogen, 31053) added with 10% FBS, 100 units/mL penicillin, 100 μg/mL streptomycin) at 8×10^5 cells/mL, seeded by 25 μL/well in a 384-well plate (Falcon, 356663) at 20000 cells/well, and cultured overnight in an incubator. On the day of the assay, tetracycline (Wako Pure Chemical Industries, Ltd., 209-16561) was diluted with the seeding medium at 2 μg/mL, added at 25 μL/well to the plate seeded with the cells, and cultured for 2 hr in an incubator. Thereafter, the medium was removed, and the cells were washed with 50 μL/well assay buffer (137 mM NaCl, 4 mM KCl, 1.8 mM CaCl2, 10 mM HEPES (pH 7.2), 10 mM Glucose, 0.1% BSA). Then, a loading buffer (assay buffer added with 2.5 μM Fluo-4AM, 2 mM Amaranth, 1 mM Tartrazine) was added at 25 μL/well, and incubation was performed in the incubator for 30 min, and at room temperature for 15 min. A solution (25 μL/well) of the Example compound diluted with the above-mentioned assay buffer at 30 μM (final concentration 10 μM) was added, and the cells were stood for 15 min at room temperature. Using FDSS7000EX/μCELL (Hamamatsu Photonics K.K.), 25 μL/well of an assay buffer containing 30 μM glutamic acid, 30 μM glycine was added, and the fluorescence signal at wavelength of Excitation 480 nm, Emission 540 nm was measured every 3 seconds for 5 min. The inhibitory activity was calculated as a relative activity value (inhibitory rate) that inhibits 100% of the cumulative value of the fluorescence value of a well added with an assay buffer free of glutamic acid, glycine, relative to the cumulative value of the fluorescence value of each well.

T1 sequence (Q13224 27-1484, other chains not shown): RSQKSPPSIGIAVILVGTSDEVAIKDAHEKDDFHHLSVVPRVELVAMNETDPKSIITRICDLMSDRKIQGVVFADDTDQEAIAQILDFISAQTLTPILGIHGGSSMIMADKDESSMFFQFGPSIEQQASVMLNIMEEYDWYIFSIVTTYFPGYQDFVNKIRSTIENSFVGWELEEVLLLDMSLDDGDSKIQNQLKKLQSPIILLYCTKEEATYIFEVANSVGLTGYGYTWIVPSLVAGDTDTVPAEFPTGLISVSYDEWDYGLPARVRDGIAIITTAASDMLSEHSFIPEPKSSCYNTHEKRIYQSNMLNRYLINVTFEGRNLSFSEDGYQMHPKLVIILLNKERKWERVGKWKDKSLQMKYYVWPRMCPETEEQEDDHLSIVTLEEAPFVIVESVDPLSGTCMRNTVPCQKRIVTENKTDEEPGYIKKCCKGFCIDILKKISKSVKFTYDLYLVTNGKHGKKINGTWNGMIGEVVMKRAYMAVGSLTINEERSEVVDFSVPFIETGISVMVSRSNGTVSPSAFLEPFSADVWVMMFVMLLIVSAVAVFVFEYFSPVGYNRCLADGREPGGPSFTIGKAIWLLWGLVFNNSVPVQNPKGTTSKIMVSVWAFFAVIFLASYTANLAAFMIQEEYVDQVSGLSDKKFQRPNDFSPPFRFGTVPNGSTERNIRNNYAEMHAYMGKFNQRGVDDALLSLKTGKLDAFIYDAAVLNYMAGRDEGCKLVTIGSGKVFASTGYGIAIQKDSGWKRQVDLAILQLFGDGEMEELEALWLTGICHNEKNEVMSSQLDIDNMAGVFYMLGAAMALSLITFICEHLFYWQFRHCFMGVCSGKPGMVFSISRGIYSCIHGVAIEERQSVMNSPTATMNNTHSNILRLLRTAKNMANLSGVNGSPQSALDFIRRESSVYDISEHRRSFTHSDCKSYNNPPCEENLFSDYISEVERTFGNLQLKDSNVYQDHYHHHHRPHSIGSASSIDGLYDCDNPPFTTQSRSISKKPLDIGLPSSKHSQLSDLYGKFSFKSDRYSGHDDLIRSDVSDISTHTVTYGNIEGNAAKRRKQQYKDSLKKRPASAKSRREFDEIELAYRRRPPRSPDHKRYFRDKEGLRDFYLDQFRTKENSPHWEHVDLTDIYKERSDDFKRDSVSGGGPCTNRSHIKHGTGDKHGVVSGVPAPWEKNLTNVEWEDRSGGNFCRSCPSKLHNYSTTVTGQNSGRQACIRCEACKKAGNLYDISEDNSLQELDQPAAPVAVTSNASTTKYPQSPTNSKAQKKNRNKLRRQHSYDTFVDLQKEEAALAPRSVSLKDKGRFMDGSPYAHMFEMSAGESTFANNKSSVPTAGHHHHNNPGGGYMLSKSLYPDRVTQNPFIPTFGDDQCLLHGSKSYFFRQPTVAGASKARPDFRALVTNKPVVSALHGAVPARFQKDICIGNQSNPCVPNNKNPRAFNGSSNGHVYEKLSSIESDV

| inhibition at 10 µM [%] | Compound |
| --- | --- |
| 93 | Cc1c(F)cncc1CNC(=O)c1cnc(OC(F)F)c(Cl)c1 [Example 73, 5-chloro-6-(difluoromethoxy)-N-[(5-fluoro-4-methylpyridin-3-yl)methyl]pyridine-3-carboxamide] |
| 90 | COc1c(F)cc(C(=O)NCc2cncnc2OC2CC2)cc1F [Example 74, N-{[4-(cyclopropyloxy)-pyrimidin-5-yl]methyl}-3,5-difluoro-4-methoxybenzamide] |
| 93 | CCOc1ncc(C(=O)NCc2cncnc2OC2CC2)cc1F [Example 75, N-{[4-(cyclopropyloxy)-pyrimidin-5-yl]methyl}-6-ethoxy-5-fluoropyridine-3-carboxamide] |
| 95 | O=C(NCc1cncnc1OC1CC1)c1cc(F)c(OC(F)F)c(F)c1 [Example 76, N-{[4-(cyclopropyloxy)-pyrimidin-5-yl]methyl}-4-(difluoromethoxy)-3,5-difluorobenzamide] |
| 94 | O=C(NCc1cncnc1OC1CC1)c1ccc(OC(F)F)c(F)c1 [Example 77, N-{[4-(cyclopropyloxy)-pyrimidin-5-yl]methyl}-4-(difluoromethoxy)-3-fluorobenzamide] |
| 94 | O=C(NCc1cncnc1OC1CC1)c1cnc(OC(F)F)c(Cl)c1 [Example 78, 5-chloro-N-{[4-(cyclopropyloxy)pyrimidin-5-yl]methyl}-6-(difluoromethoxy)pyridine-3-carboxamide] |
| 89 | COc1ncncc1CNC(=O)c1csc(C2CC2)c1 [Example 79, 5-cyclopropyl-N-[(4-methoxypyrimidin-5-yl)methyl]thiophene-3-carboxamide] |
| 94 | Cc1c(F)cncc1CNC(=O)c1cnc(C2CC2)c(F)c1 [Example 80, 6-cyclopropyl-5-fluoro-N-[(5-fluoro-4-methylpyridin-3-yl)methyl]pyridine-3-carboxamide] |
| 90 | O=C(NCc1cncnc1OC1CC1)c1cnc(C2CC2)c(F)c1 [Example 81, 6-cyclopropyl-N-{[4-(cyclopropyloxy)-pyrimidin-5-yl]methyl}-5-fluoropyridine-3-carboxamide] |
| 89 | COc1ncncc1CNC(=O)c1cnc(C2CC2)c(F)c1 [Example 82, 6-cyclopropyl-5-fluoro-N-[(4-methoxypyrimidin-5-yl)methyl]pyridine-3-carboxamide] |
| 92 | COc1ncncc1CNC(=O)c1cnc(C2CC2)c(Cl)c1 [Example 83, 5-chloro-6-cyclopropyl-N-[(4-methoxypyrimidin-5-yl)methyl]pyridine-3-carboxamide] |
| 91 | COc1ncncc1CNC(=O)c1cc(F)c(OC)c(Cl)c1 [Example 84, 3-chloro-5-fluoro-4-methoxy-N-[(4-methoxypyrimidin-5-yl)methyl]benzainide] |
| 87 | CCOc1ncc(C(=O)NCc2cncnc2OC)cc1Cl [Example 85, 5-chloro-6-ethoxy-N-[(4-methoxypyrimidin-5-yl)methyl]pyridine-3-carboxamide] |
| 90 | CCOc1ncncc1CNC(=O)c1cc(F)c(OC)c(F)c1 [Example 86, N-[(4-ethoxypyrimidin-5-yl)methyl]-3,5-difluoro-4-methoxybenzamide] |
| 93 | CCOc1ncncc1CNC(=O)c1cc(F)c(OC(F)F)c(F)c1 [Example 87, 4-(difluoromethoxy)-N-[(4-ethoxypyrimidin-5-yl)methyl]-3,5-difluorobenzamide] |
| 92 | CCOc1ncncc1CNC(=O)c1cnc(OC(F)F)c(Cl)c1 [Example 88, 5-chloro-6-(difluoromethoxy)-N-[(4-ethoxypyrimidin-5-yl)methyl]pyridine-3-carboxamide] |
| 92 | COc1ccncc1CNC(=O)c1cc(F)c(OC)c(F)c1 [Example 89, 3,5-difluoro-4-methoxy-N-[(4-methoxypyridin-3-yl)methyl]benzamide] |

| inhibition at 10 µM [%] | Compound |
| --- | --- |
| 95 | COc1c(F)cc(C(=O)NCc2cncc(F)c2OC)cc1F [Example 90, 3,5-difluoro-N-[(5-fluoro-4-methoxypyridin-3-yl)methyl]-4-methoxybenzamide] |
| 91 | CC(F)(F)c1ncc(C(=O)NCc2cncnc2OC2CC2)cc1F [Example 91, N-{[4-(cyclopropyloxy)-pyrimidin-5-yl]methyl}-6-(1,1-difluoroethyl)-5-fluoropyridine-3-carboxamide] |
| 86 | COc1ncncc1CNC(=O)c1cnc(C(C)(F)F)c(F)c1 [Example 92, 6-(1,1-difluoroethyl)-5-fluoro-N-[(4-methoxypyrimidin-5-yl)methyl]pyridine-3-carboxamide] |
| 90 | Cc1ccncc1CNC(=O)c1cnc(C(C)(F)F)c(F)c1 [Example 93, 6-(1,1-difluoroethyl)-5-fluoro-N-[(4-methylpyridin-3-yl)methyl]pyridine-3-carboxamide] |
| 91 | Cc1c(F)cncc1CNC(=O)c1cnc(C(C)(F)F)c(F)c1 [Example 94, 6-(1,1-difluoroethyl)-5-fluoro-N-[(5-fluoro-4-methylpyridin-3-yl)methyl]pyridine-3-carboxamide] |
| 90 | CC(F)(F)c1ncc(C(=O)NCc2cncnc2OC2CC2)cc1Cl [Example 95, 5-chloro-N-{[4-(cyclopropyloxy)pyrimidin-5-yl]methyl}-6-(1,1-difluoroethyl)pyridine-3-carboxamide] |
| 85 | COc1ncncc1CNC(=O)c1cnc(C(C)(F)F)c(Cl)c1 [Example 96, 5-chloro-6-(1,1-difluoroethyl)-N-[(4-methoxypyrimidin-5-yl)methyl]pyridine-3-carboxamide] |
| 92 | Cc1ccncc1CNC(=O)c1cnc(C(C)(F)F)c(Cl)c1 [Example 97, 5-chloro-6-(1,1-difluoroethyl)-N-[(4-methylpyridin-3-yl)methyl]pyridine-3-carboxamide] |
| 95 | Cc1c(F)cncc1CNC(=O)c1cnc(C(C)(F)F)c(Cl)c1 [Example 98, 5-chloro-6-(1,1-difluoroethyl)-N-[(5-fluoro-4-methylpyridin-3-yl)methyl]pyridine-3-carboxamide] |
| 89 | O=C(NCc1cnccc1OC(F)F)c1cnc(OC(F)F)c(F)c1 [Example 99, 6-(difluoromethoxy)-N-{[4-(difluoromethoxy)pyridin-3-yl]methyl}-5-fluoropyridine-3-carboxamide] |
| 72 | Cc1ccncc1CNC(=O)c1csc(C(F)F)c1 [Example 100, 5-(difluoromethyl)-N-[(4-methylpyridin-3-yl)methyl]thiophene-3-carboxamide] |
| 90 | Cc1ccncc1CNC(=O)c1cnc(C2CC2(F)F)c(F)c1 (stereo not drawn) [Example 101, 6-(2,2-difluorocyclopropyl)-5-fluoro-N-[(4-methylpyridin-3-yl)methyl]pyridine-3-carboxamide] |
| 93 | Cc1ccncc1CNC(=O)c1cnc(C2CC2(F)F)c(Cl)c1 (stereo not drawn) [Example 102, 5-chloro-6-(2,2-difluorocyclopropyl)-N-[(4-methylpyridin-3-yl)methyl]pyridine-3-carboxamide] |
| 92 | Cc1c(F)cncc1CNC(=O)c1cnc(C2CC2(F)F)c(F)c1 (stereo not drawn) [Example 103, 6-(2,2-difluorocyclopropyl)-5-fluoro-N-[(5-fluoro-4-methylpyridin-3-yl)methyl]pyridine-3-carboxamide] |
| 95 | Cc1c(F)cncc1CNC(=O)c1cnc(C2CC2(F)F)c(Cl)c1 (stereo not drawn) [Example 104, 5-chloro-6-(2,2-difluorocyclopropyl)-N-[(5-fluoro-4-methylpyridin-3-yl)methyl]pyridine-3-carboxamide] |
| 94 | O=C(NCc1cnccc1OC(F)F)c1cnc(OC(F)F)c(Cl)c1 [Example 111, 5-chloro-6-(difluoromethoxy)-N-[(4-(difluoromethoxy)pyridin-3-yl)methyl]pyridine-3-carboxamide] |
